Assay [1] deals with MCF7-WT cells (MCF7 ER-alpha wildtype). The assay is described as follows: In vitro proliferation (viability) assay, CellTiter-Glo, MCF7-WT cells. It counts as cell-based. Particulars: Homo sapiens; MCF7-WT cells, 6 days, CTG vs day 0; mean ± SD-type spread (n); read-out: GI50 WT.
Assay [2] has as its system MCF7-Y537S cells (MCF7 ER-alpha Y537S mutant). The assay is described as follows: In vitro proliferation (viability) assay, CellTiter-Glo, MCF7-Y537S cells. It counts as cell-based. Particulars: Homo sapiens; MCF7-Y537S cells, 6 days, CTG vs day 0; mean ± SD-type spread (n); read-out: GI50 MUT (Y537S). In short, it runs like this: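 Stable lentiviral MCF7 lines expressing WT or Y537S ESR1 seeded at 1500 cells/well; next day dosed with 10-point 1:4 dilutions in triplicate, with media/compound refreshed on day 3. CellTiter-Glo luminescence on day 6 compared with a day 0 reading to give GI50.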
On the technique in general: ATP-based viability assays read luminescence as a measure of living cells.

Take `CC/C(=C(/c1ccc(OCCNC/C=C/C(=O)N(C)C)cc1)c1cc2c(F)n[nH]c2cc1F)c1ccccc1` [Compound 66, (E)-4-((2-(4-((E)-1-(3,6-difluoro-1H-indazol-5-yl)-2-phenylbut-1-en-1-yl)phenoxy)ethyl)amino)-N,N-dimethylbut-2-enamide]: the GI50 – broadly, the concentration at which growth is held to half of that of the control – in assay [1] turned out to be 32.1 nM; in assay [2], 827 nM.

Regarding `CC/C(=C(/c1ccc(OCCNC/C=C/C(=O)N(C)C)cc1)c1ccc2[nH]nc(F)c2c1)c1ccccn1` [Compound 67, (E)-4-((2-(4-((E)-1-(3-fluoro-1H-indazol-5-yl)-2-(pyridin-2-yl)but-1-en-1-yl)phenoxy)ethyl)amino)-N,N-dimethylbut-2-enamide], the results for the GI50 in assay [1] and in assay [2] were 10.5 nM and 193 nM, respectively.

As for `CC/C(=C(/c1ccc(OCCNC/C=C/C(=O)N(C)C)nc1)c1ccc2[nH]nc(F)c2c1)c1ccccc1` [Compound 68, (E)-4-((2-((5-((Z)-1-(3-fluoro-1H-indazol-5-yl)-2-phenylbut-1-en-1-yl)pyridin-2-yl)oxy)ethyl)amino)-N,N-dimethylbut-2-enamide], the values for the GI50 in assay [1] and in assay [2] were 2.8 nM and 30.3 nM, respectively.

For `CN(C)C(=O)/C=C/CNCCOc1ccc(/C(=C(\c2ccccc2)C2CCC2)c2ccc3[nH]nc(F)c3c2)cn1` [Compound 72, (E)-4-((2-((5-((Z)-2-cyclobutyl-1-(3-fluoro-1H-indazol-5-yl)-2-phenylvinyl)pyridin-2-yl)oxy)ethyl)amino)-N,N-dimethylbut-2-enamide], the GI50 came to 2 nM in assay [1] and 32.7 nM in assay [2].

In the case of `CC/C(=C(/c1ccc(OCCNC/C=C/C(=O)N(C)C)cc1)c1ccc2[nH]nc(F)c2c1)c1ccccc1Cl` [Compound 73, (E)-4-((2-(4-((E)-2-(2-chlorophenyl)-1-(3-fluoro-1H-indazol-5-yl)but-1-en-1-yl)phenoxy)ethyl)amino)-N,N-dimethylbut-2-enamide], the GI50 is 1.7 nM in assay [1] and 40.5 nM in assay [2].

On to `CC/C(=C(/c1ccc(OCCNC/C=C/C(=O)N(C)C)cc1)c1ccc2[nH]ncc2c1)c1ccc(F)cc1Cl` [Compound 74, (E)-4-((2-(4-((E)-2-(2-chloro-4-fluorophenyl)-1-(1H-indazol-5-yl)but-1-en-1-yl)phenoxy)ethyl)amino)-N,N-dimethylbut-2-enamide], for which the GI50 in assay [1] is 1.8 ± 0.5 nM; in assay [2], 28.8 ± 14 nM.

Take `CC/C(=C(/c1ccc(OCCNC/C=C/C(=O)N(C)CCO)cc1)c1ccc2[nH]nc(F)c2c1)c1ccncc1` [Compound 75, (E)-4-((2-(4-((E)-1-(3-fluoro-1H-indazol-5-yl)-2-(pyridin-4-yl)but-1-en-1-yl)phenoxy)ethyl)amino)-N-(2-hydroxyethyl)-N-methylbut-2-enamide]: the figures for the GI50 in assay [1] and in assay [2] were 3.2 nM and 72.2 nM, respectively.

In the case of `CC/C(=C(/c1ccc(OCCNC/C=C/C(=O)N(C)C)cc1)c1cc(F)c2[nH]ncc2c1)c1ccccc1` [Compound 76, (E)-4-((2-(4-((E)-1-(7-fluoro-1H-indazol-5-yl)-2-phenylbut-1-en-1-yl)phenoxy)ethyl)amino)-N,N-dimethylbut-2-enamide], the results for the concentration for 50% growth inhibition (GI50) in assay [1] and in assay [2] were 1.2 nM and 32.2 nM, respectively.

Consider `CCC/C(=C(/c1ccc(OCCNC/C=C/C(=O)N(C)C)cc1)c1ccc2[nH]nc(F)c2c1)c1ccccc1` [Compound 77, (E)-4-((2-(4-((E)-1-(3-fluoro-1H-indazol-5-yl)-2-phenylpent-1-en-1-yl)phenoxy)ethyl)amino)-N,N-dimethylbut-2-enamide], for which the GI50 is 2.4 nM in assay [1] and 35 nM in assay [2].

As to `CC/C(=C(/c1ccc(OCCNC/C=C/C(=O)N(C)C)cc1)c1cc(F)c2[nH]nc(F)c2c1)c1ccccc1` [Compound 79, (E)-4-((2-(4-((E)-1-(3,7-difluoro-1H-indazol-5-yl)-2-phenylbut-1-en-1-yl)phenoxy)ethyl)amino)-N,N-dimethylbut-2-enamide], the GI50 in assay [1] amounted to 6.9 nM; in assay [2] it was 92.5 nM.

In the case of `CC/C(=C(/c1ccc(OCCNC/C=C/C(=O)N(C)C)cc1)c1ccc2[nH]nc(F)c2c1)c1cc(F)ccc1F` [Compound 80, (E)-4-((2-(4-((E)-2-(2,5-difluorophenyl)-1-(3-fluoro-1H-indazol-5-yl)but-1-en-1-yl)phenoxy)ethyl)amino)-N,N-dimethylbut-2-enamide], the GI50 in assay [1] stood at 2 nM; in assay [2], 33.6 nM.

On to `CC/C(=C(/c1ccc(OCCNC/C=C/C(=O)N(C)C)cc1)c1ccc2[nH]nc(F)c2c1)c1ccncc1F` [Compound 81, (E)-4-((2-(4-((E)-1-(3-fluoro-1H-indazol-5-yl)-2-(3-fluoropyridin-4-yl)but-1-en-1-yl)phenoxy)ethyl)amino)-N,N-dimethylbut-2-enamide], for which the figures for the 50% growth inhibitory concentration (GI50) in assay [1] and in assay [2] were 0.3 nM and 13 nM, respectively.

As for `CC(C)/C(=C(/c1ccc(OCCNC/C=C/C(=O)N(C)C)cc1)c1ccc2[nH]nc(F)c2c1)c1ccccc1` [Compound 82, (E)-4-((2-(4-((E)-1-(3-fluoro-1H-indazol-5-yl)-3-methyl-2-phenylbut-1-en-1-yl)phenoxy)ethyl)amino)-N,N-dimethylbut-2-enamide], the GI50 is 4.65 ± 2.9 nM in assay [1] and 93.7 ± 6.3 nM in assay [2].

For the molecule `CN(C)C(=O)/C=C/CNCCOc1ccc(/C(=C(/CCF)c2ccccc2)c2ccc3[nH]nc(F)c3c2)cc1` [Compound 84], the GI50 in assay [1] came out at 2.15 ± 0.15 nM; in assay [2] it was 34.9 ± 1.5 nM.

With `CC/C(=C(/c1ccc(OCCNCC/C=C/C(=O)N(C)C)cc1)c1ccc2[nH]nc(F)c2c1)c1ccc(F)cc1Cl` [Compound 85], the figures for the GI50 in assay [1] and in assay [2] were 1.56 ± 0.56 nM and 28.4 ± 2.9 nM, respectively.

As for `CC/C(=C(/c1ccc(OCCNC/C=C(\C)C(=O)N(C)C)cc1)c1ccc2[nH]nc(F)c2c1)c1ccc(F)cc1Cl` [Compound 86], the 50% growth inhibitory concentration (GI50) in assay [1] was determined as 1.73 ± 1 nM; in assay [2], 29.4 ± 4.7 nM.

Consider `CN(C)C(=O)/C=C/CNCCOc1ccc(/C(=C(/CC(F)(F)F)c2ccc(F)cc2Cl)c2ccc3[nH]nc(F)c3c2)cc1` [Compound 87, (E)-4-((2-(4-((E)-2-(2-chloro-4-fluorophenyl)-4,4,4-trifluoro-1-(3-fluoro-1H-indazol-5-yl)but-1-en-1-yl)phenoxy)ethyl)amino)-N,N-dimethylbut-2-enamide], for which the GI50 in assay [1] came out at 0.25 nM; in assay [2], 21.9 nM.

Regarding `[2H]c1c([2H])c([2H])c(/C(CC)=C(\c2ccc(OCCNC/C=C/C(=O)N(C)C)cc2)c2ccc3[nH]ncc3c2)c([2H])c1[2H]` [Compound 88, (E)-4-((2-(4-((E)-1-(1H-indazol-5-yl)-2-(phenyl-d5)but-1-en-1-yl)phenoxy)ethyl)amino)-N,N-dimethylbut-2-enamide], the GI50 was found to be 0.7 nM in assay [1] and 12.5 nM in assay [2].

As for `CC/C(=C(/c1ccc(OCCNC(C)/C=C/C(=O)N(C)C)cc1)c1ccc2[nH]ncc2c1)c1ccccc1` (stereo not shown) [Compound 89, (E)-4-((2-(4-((E)-1-(1H-indazol-5-yl)-2-phenylbut-1-en-1-yl)phenoxy)ethyl)amino)-N,N-dimethylpent-2-enamide], the GI50 in assay [1] was found to be 2.8 nM; in assay [2] it was 35 nM.

Regarding `CC/C(=C(/c1ccc(OC(C)CNC/C=C/C(=O)N(C)C)cc1)c1ccc2[nH]ncc2c1)c1ccccc1` (stereo not shown) [Compound 90, (E)-4-((2-(4-((E)-1-(1H-indazol-5-yl)-2-phenylbut-1-en-1-yl)phenoxy)propyl)amino)-N,N-dimethylbut-2-enamide], the GI50 in assay [1] came out at 2.5 nM; in assay [2], 22.7 nM.
